The NIST ThermoML archive (doi:10.1021/je401120a)
Numbers after ± are expanded uncertainties.

Experiment: refractive index (Na D-line) (dimensionless); xn = mol fraction of the nth substance listed
Conditions: 101 kPa, Liquid, Standard Abbe refractometry

CCC[n+]1ccccc1.F[B-](F)(F)F [1-propylpyridinium tetrafluoroborate] + CO
refractive index
Conditions	293.15 K	303.15 K	313.15 K	323.15 K
x1 = 0.0279	1.34377 ± 0.00042	1.3399 ± 0.00042	1.3361 ± 0.00042	1.33304 ± 0.00042
x1 = 0.0576	1.35657 ± 0.00041	1.35319 ± 0.00041	1.34994 ± 0.00041	1.34753 ± 0.00041
x1 = 0.0965	1.36988 ± 0.00041	1.36693 ± 0.00041	1.36409 ± 0.00041	1.36215 ± 0.00041
x1 = 0.1457	1.38283 ± 0.00041	1.38006 ± 0.00041	1.37759 ± 0.00041	1.37597 ± 0.00041
x1 = 0.1949	1.39301 ± 0.00042	1.3903 ± 0.00042	1.38806 ± 0.00042	1.38633 ± 0.00042
x1 = 0.2548	1.4028 ± 0.00042	1.40001 ± 0.00042	1.39755 ± 0.00042	1.39577 ± 0.00042
x1 = 0.3209	1.41121 ± 0.00043	1.40839 ± 0.00043	1.40578 ± 0.00043	1.40373 ± 0.00043
x1 = 0.3998	1.4189 ± 0.00044	1.41592 ± 0.00044	1.41304 ± 0.00044	1.41094 ± 0.00044
x1 = 0.496	1.42595 ± 0.00046	1.42315 ± 0.00046	1.42027 ± 0.00046	1.4177 ± 0.00046
x1 = 0.5983	1.43176 ± 0.00047	1.4289 ± 0.00047	1.42609 ± 0.00047	1.42341 ± 0.00047
x1 = 0.6901	1.43601 ± 0.00049	1.43321 ± 0.00049	1.43034 ± 0.00049	1.42772 ± 0.00049
x1 = 0.8007	1.44014 ± 0.00052	1.43738 ± 0.00052	1.43461 ± 0.00052	1.43193 ± 0.00052
x1 = 0.8821	1.44265 ± 0.00054	1.43997 ± 0.00054	1.43737 ± 0.00054	1.43464 ± 0.00054
x1 = 1	1.44588 ± 0.00057	1.44322 ± 0.00057	1.44057 ± 0.00057	1.43792 ± 0.00057
